From patent publication US9023635B2, “Bacterial methods” (Imperial Innovations Limited, priority 2010, dated 2015)

How the values were obtained:
[1] = test system: PrkC-SAV expressing spores with biotinylated azide and alkyne; details: all click reaction components present; FIG. 26
Description: For all PrkC-SAV spore reactions, 100 nM of biotinylated ‘sensor’ was added to 100 μl reactions of spores at a concentration of OD600 ˜1. […] All reactions were carried out at room temperature. Controls for PrkC-SAV spore experiments omitted each reagent/parameter tested and the affect on germination was assessed. After addition of germinant, terbium was added to a final concentration of 5 μM and fluorescence visualized on a UV transilluminator (Biorad), at periodic time points. A DPA standard was imaged using known concentrations and correlated to fluorescent pixels.
PrkC-SAV expressing spores were incubated in the presence of biotinylated azide and alkyne groups with copper (FIG. 25). DPA release, i.e. germination, was measured by fluorescence in the presence of terbium as described in previous Examples.

[2] = test system: prkC-SAV spores with complementary biotinylated oligos; experiment: Germination of prkC-SAV spores with structure-switching anti-thrombin aptamers; type: cell-based; details: FIG. 30
Description: Hall et al (2009) describe a method for protein detection using structure switching aptamers. The well-known example of thrombin as a target, described in the Introduction by Hall et al, was utilised to assess the use of bacterial spores as an alternative readout to release of a quencher from a fluorophore, as illustrated in FIGS. 29-30.

[3] = test system: bacterial spores in the absence of the chimeric protein; experiment: Germination of bacterial spores in the absence of the prkC-EPOR chimeric protein; type: cell-based, Bacillus subtilis
[4] = test system: bacterial spore with prkC intracellular and transmembrane domain and the extracellular EPOR domain; experiment: Germination of bacterial spores expressing chimeric prkC-EPOR receptor; type: cell-based, Bacillus subtilis
[5] = test system: prkC-SAV spores with biotinylated aptamers; experiment: Germination of prkC-SAV spores with biotinylated anti-PDGF aptamers; type: cell-based; details: FIG. 28
Description: Presence of the target protein results in binding of the protein by the aptamers, dimerisation of the prkC proteins, and germination of the spores, which can be detected, for example, using methods described in previous Examples.

For `O=S(=O)([O-])[O-].[Cu+2]` [copper, copper (II) sulfate], the “germination (DPA release) versus controls omitting azide/alkyne or copper” value [1] was “significant increase in germination”.

For thrombin, the “target protein concentration of optimal detection” value [2] was 100 nm.

erythropoietin [EPO] was tested, and the germination of spores [3] was “does not stimulate the germination”, the “germination efficiency with increased concentration” value ([4]; FIG. 13, increased concentration of EPO) was “increase in germination efficiency” and the germination of spores ([4]; spores expressing prkC-EPOR chimera) was “stimulation of germination”.

B1: PDGF-BB: platelet derived growth factor, in the BB homodimer form (protein, UniProt P01127 82-190, looked up)
Platelet-derived growth …: SLGSLTIAEPAMIAECKTRTEVFEISRRLIDRTNANFLVWPPCVEVQRCSGCCNNRNVQCRPTQVQLRPVQVRKIEIVRKKPIFKKATVTLEDHLACKCETVAAARPVT
modifications: BB homodimer
notes: platelet derived growth factor, in the BB homodimer form
With B1 the “target protein concentration of optimal detection” value [5] was 0.1 nM.
